Columns and labels:
[1] = system: ABUTH (Abutilon theophrasti); assay: Postemergence herbicidal evaluation; assay type: in vivo, Medic.; details: postemergence
Method in brief: (§1)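 Seedlings grown about two weeks in flats, sprayed, then kept under standard greenhouse care. Rated visually 4–5 weeks after treatment on a 0–9 scale (stand, vigour, malformation, size, chlorosis, overall appearance) relative to untreated control; repeat tests averaged.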

[2] = system: AMBEL (Ambrosia artemisifolia); assay: Postemergence herbicidal evaluation; assay type: in vivo, L.; details: postemergence
Method in brief: as §1

[3] = system: CASOB (Cassia obtusifolia); assay: Postemergence herbicidal evaluation; assay type: in vivo, L.; details: postemergence
Method in brief: as §1

[4] = system: CHEAL (Chenopodium album); assay: Postemergence herbicidal evaluation; assay type: in vivo, L.; details: postemergence
Method in brief: as §1

[5] = system: IPOHE (Ipomoea hederacea); assay: Postemergence herbicidal evaluation; assay type: in vivo, (L.) Jacq.; details: postemergence
Method in brief: as §1

[6] = system: ECHCG (Echinochloa crus-galli); assay: Postemergence herbicidal evaluation; assay type: in vivo, (L.) Beau; details: postemergence
Method in brief: as §1

ORYSAT (Rice, Tebonnet) [7] = assay: Postemergence herbicidal evaluation; assay type: in vivo, Oryza sativa, (L.) Tebonnet; details: postemergence
Method in brief: as §1

[8] = system: TRZAWR (Wheat, Winter, cv Riband); assay: Postemergence herbicidal evaluation; assay type: in vivo, Triticum aestivum; details: postemergence
Method in brief: as §1

ZEAMX (Corn, Field) = assay: Postemergence herbicidal evaluation; assay type: in vivo, Zea mays, L.; details: postemergence
Method in brief: as §1

[9] = system: ABUTH (Abutilon theophrasti); assay: Preemergence herbicidal evaluation; assay type: in vivo, Medic.; details: rated 4-5 weeks after treatment
[10] = system: AMBEL (Ambrosia artemisifolia); assay: Preemergence herbicidal evaluation; assay type: in vivo, L.; details: rated 4-5 weeks after treatment
Method in brief: (§2)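 Applied before emergence as an aqueous acetone spray over seeded soil. Read-out: 0–9 visual rating covering plant stand, vigor, size, chlorosis, malformation and overall appearance compared with control, taken 4–5 weeks after spraying.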

[11] = system: CASOB (Cassia obtusifolia); assay: Preemergence herbicidal evaluation; assay type: in vivo, L.; details: rated 4-5 weeks after treatment
Method in brief: as §2

[12] = system: CHEAL (Chenopodium album); assay: Preemergence herbicidal evaluation; assay type: in vivo, L.; details: rated 4-5 weeks after treatment
Method in brief: as §2

ORYSAT (Rice, Tebonnet) [13] = assay: Preemergence herbicidal evaluation; assay type: in vivo, Oryza sativa, (L.) Tebonnet; details: rated 4-5 weeks after treatment
[14] = system: TRZAWR (Wheat, Winter, cv Riband); assay: Preemergence herbicidal evaluation; assay type: in vivo, Triticum aestivum; details: rated 4-5 weeks after treatment
Method in brief: as §2

[15] = system: ECHORC (Echinochloa oryzoides); assay: Flooded paddy, preemergence weed control; assay type: in vivo, Echinochloa oryzoides (Ard.) Fritsch.; details: rated 3-4 weeks after treatment, 0-9 rating scale
Method in brief: (§3)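 Greenhouse paddy test, preemergence. Seeds planted in the top 0.5 cm of silt loam soil, which remained flooded at 1.5–3 cm depth. Scored 0-9 by visual comparison with control.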

[16] = system: SAGPY (Sagittaria pygmaea); assay: Flooded paddy, preemergence weed control; assay type: in vivo, L.; details: rated 3-4 weeks after treatment, 0-9 rating scale
Method in brief: as §3

ORYSAT (Rice, Tebonnet) [17] = assay: Flooded paddy, post-transplant rice tolerance; assay type: in vivo, Oryza sativa, (L.) Tebonnet; details: flooded paddy, post-transplant rice, rated 3-4 weeks after treatment, 0-9 rating scale
Method in brief: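 Seedlings aged ten days are transplanted in pairs into undrained pots of silt loam, which are then flooded to a depth of 1.5 to 3 cm. After herbicide application the pots are kept in a greenhouse with the flood maintained. Plants are rated 0-9 by visual comparison with controls.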

SMILES: CC(C)C1COC(c2nsc3ccc(-n4c(=O)cc(C(F)(F)F)n(C)c4=O)cc23)=N1 (stereo not drawn) [Compound 74, 3-[3-(4-isopropyl-2-oxazolin-2-yl)-1,2-benzisothiazol-5-yl]-1-methyl-6-(trifluoromethyl)uracil]
- ABUTH herbicidal rating ([1]; rate 0.0320 kg/ha): 9.0
- ABUTH herbicidal rating ([1]; rate 0.0620 kg/ha): 9.0
- AMBEL herbicidal rating ([2]; rate 0.0320 kg/ha): 9.0
- AMBEL herbicidal rating ([2]; rate 0.0620 kg/ha): 9.0
- CASOB herbicidal rating ([3]; rate 0.0320 kg/ha): 2.0
- CASOB herbicidal rating ([3]; rate 0.0620 kg/ha): 1.0
- CHEAL herbicidal rating ([4]; rate 0.0320 kg/ha): 9.0
- CHEAL herbicidal rating ([4]; rate 0.0620 kg/ha): 9.0
- IPOHE herbicidal rating ([5]; rate 0.0320 kg/ha): 7.0
- IPOHE herbicidal rating ([5]; rate 0.0620 kg/ha): 9.0
- ECHCG herbicidal rating ([6]; rate 0.0320 kg/ha): 2.0
- ECHCG herbicidal rating ([6]; rate 0.0620 kg/ha): 2.0
- ORYSAT herbicidal rating (ORYSAT (Rice, Tebonnet) [7]; rate 0.0320 kg/ha): 3.5
- ORYSAT herbicidal rating (ORYSAT (Rice, Tebonnet) [7]; rate 0.0620 kg/ha): 4.0
- TRZAWR herbicidal rating ([8]; rate 0.0320 kg/ha): 3.5
- TRZAWR herbicidal rating ([8]; rate 0.0620 kg/ha): 4.0
- ZEAMX herbicidal rating (ZEAMX (Corn, Field); rate 0.0320 kg/ha): 5.0
- ZEAMX herbicidal rating (ZEAMX (Corn, Field); rate 0.0620 kg/ha): 5.0
- Preemergence herbicidal rating ABUTH ([9]; Rate 0.0620 kg/ha): 3.0
- Preemergence herbicidal rating ABUTH ([9]; Rate 0.1250 kg/ha): 7.0
- Preemergence herbicidal rating ABUTH ([9]; Rate 0.2500 kg/ha): 9.0
- Preemergence herbicidal rating AMBEL ([10]; Rate 0.0620 kg/ha): 0.0
- Preemergence herbicidal rating AMBEL ([10]; Rate 0.1250 kg/ha): 6.0
- Preemergence herbicidal rating AMBEL ([10]; Rate 0.2500 kg/ha): 9.0
- Preemergence herbicidal rating CASOB ([11]; Rate 0.0620 kg/ha): 0.0
- Preemergence herbicidal rating CASOB ([11]; Rate 0.1250 kg/ha): 0.0
- Preemergence herbicidal rating CASOB ([11]; Rate 0.2500 kg/ha): 3.0
- Preemergence herbicidal rating CHEAL ([12]; Rate 0.0620 kg/ha): 9.0
- Preemergence herbicidal rating CHEAL ([12]; Rate 0.1250 kg/ha): 9.0
- Preemergence herbicidal rating CHEAL ([12]; Rate 0.2500 kg/ha): 9.0
- Preemergence herbicidal rating ORYSAT (ORYSAT (Rice, Tebonnet) [13]; Rate 0.0620 kg/ha): 1.0
- Preemergence herbicidal rating ORYSAT (ORYSAT (Rice, Tebonnet) [13]; Rate 0.1250 kg/ha): 1.0
- Preemergence herbicidal rating ORYSAT (ORYSAT (Rice, Tebonnet) [13]; Rate 0.2500 kg/ha): 5.0
- Preemergence herbicidal rating TRZAWR ([14]; Rate 0.0620 kg/ha): 1.0
- Preemergence herbicidal rating TRZAWR ([14]; Rate 0.1250 kg/ha): 2.0
- Preemergence herbicidal rating TRZAWR ([14]; Rate 0.2500 kg/ha): 5.0
- herbicidal rating, ECHORC ([15]; rate 0.0080 kg/ha): 5.5
- herbicidal rating, ECHORC ([15]; rate 0.0320 kg/ha): 8.0
- herbicidal rating, ECHORC ([15]; rate 0.1250 kg/ha): 9.0
- herbicidal rating, SAGPY ([16]; rate 0.0080 kg/ha): 0.0
- herbicidal rating, SAGPY ([16]; rate 0.0320 kg/ha): 1.5
- herbicidal rating, SAGPY ([16]; rate 0.1250 kg/ha): 7.0
- herbicidal rating, ORYSAT (rice tolerance) (ORYSAT (Rice, Tebonnet) [17]; rate 0.0080 kg/ha): 1.5
- herbicidal rating, ORYSAT (rice tolerance) (ORYSAT (Rice, Tebonnet) [17]; rate 0.0320 kg/ha): 4.0
- herbicidal rating, ORYSAT (rice tolerance) (ORYSAT (Rice, Tebonnet) [17]; rate 0.1250 kg/ha): 6.0
